Consider twelve compounds from PubChem BioAssay (NCI).

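These data come from cells grown in 96-well plates and exposed to compound for 48 hours at five concentrations. At the GI50, growth is halved. The concentration for full growth arrest is given as TGI.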 Where a SMILES comes first, the peptide text is derived from it. Bridges are numbered along the chain shown (N, C = ends). Bounds are passed on as bounds.

Holding throughout (test): growth of human tumour cells (NCI), 48 h
Experiment [1] has as its system A549 NSCLC.
Experiment [2] has as its system HCC-2998 colon.
For experiment [3], the system named is HL-60(TB) leukemia.
In experiment [4] the test system is M14 melanoma.
The test system of experiment [5] is RXF 393 renal.
Experiment [6] relates to SF-295 CNS.
In experiment [7] the test system is SN12C renal.
Experiment [8] has as its system SNB-19 CNS.
In experiment [9] the test system is U251 CNS.
The subject of experiment [10] is A498 renal.

In the case of `COc1ccc(-c2nsc3c2NC(=O)CC3c2cccc(F)c2)cc1` (stereo unspecified), the GI50 in experiment [1] is 5.16 µM; in [2] it was 7.18 µM; in [3] it was 4.21 µM; in [4], 3.44 µM; in experiment [5] it was 4.04 µM; in [6] it was 6.68 µM. Besides, the GI50 in experiment [7] was 5.2 µM; in experiment [8], 5.91 µM; in experiment [9], 5.55 µM. In addition, the TGI in experiment [1], in experiment [2], in experiment [3], in [4], in [5] and in experiment [6] was above 100 µM in each case. Moreover, the TGI in [7], in experiment [8] and in experiment [9] was above 100 µM throughout.
For the compound `CC1(C)C2=CCCC(=O)[C@@]2(C)CC[C@@H]1O`, the TGI in experiment [1], in [2], in experiment [3], in experiment [4], in experiment [5] and in experiment [6] was above 100 µM each time. Besides, the TGI in experiment [7], in [8] and in [9] was above 100 µM throughout.
With `O=C(CS(=O)c1nc2ccccc2nc1-c1ccccc1)Nc1ccc(Cl)cc1` (stereo unspecified), the GI50 in experiment [10] is 19 µM; in experiment [1], 32.3 µM; in experiment [2], 28.6 µM; in [4], 28.4 µM; in experiment [5], 30.4 µM; in [6], 15.7 µM. Also, the GI50 in [7] is 18.2 µM; in [8], 38.4 µM; in [9] it was 21.8 µM. Besides, the TGI in [10] was 43 µM; in [1], above 100 µM; in experiment [2], 84.9 µM; in [4], above 100 µM; in [5], 84.3 µM; in experiment [6], 48.7 µM. Moreover, the TGI in experiment [7] is 33.7 µM; in [8], above 100 µM; in [9], 61.6 µM.
As to `CC1(C)C=C(N2CCN(C3=CC(C)(C)NC(C)(C)C3)CC2)CC(C)(C)N1`, the TGI in experiment [10], in experiment [1], in experiment [2], in experiment [3], in experiment [4] and in experiment [6] was above 100 µM in each case. For the same compound, the TGI in experiment [7], in experiment [8] and in [9] was above 100 µM each time.
Regarding `CCCCCCCCCCCCCP(=O)(OC)OC`, the TGI in experiment [1] was 36.9 µM; in [2], 36 µM; in experiment [3], 32.9 µM; in [4] it was 34.7 µM; in experiment [5] it was 48.4 µM; in [6], 37.1 µM. For the same compound, the values for the TGI in [7], in [8] and in [9] were 35 µM, 38.6 µM and 32.9 µM, respectively.
Turning to `COc1ccc2[nH]cc(C3(c4c[nH]c5ccc(OC)cc45)C(=O)Nc4ccc(Cl)cc43)c2c1`, the GI50 in experiment [10] was 4.94 µM; in experiment [2], 3.26 µM; in [4], 4.06 µM; in [5], 3.4 µM; in experiment [6] it was 2.1 µM; in experiment [7], 4.34 µM. Further, the values for the GI50 in experiment [8] and in [9] were 5.14 µM and 2.88 µM, respectively. The TGI in experiment [10] is 18.7 µM; in experiment [2], 11.4 µM; in experiment [4], above 100 µM; in [5], 13.6 µM; in experiment [6], 6.26 µM; in experiment [7] it was 18.6 µM. Besides, the TGI in [8] is above 100 µM; in experiment [9], 13.4 µM.
For the compound `COC(=O)/C(=N\Nc1nc(=S)[nH]n1N)C(C#N)c1ccc(Cl)cc1` (stereo unspecified), the TGI in experiment [10], in experiment [1], in experiment [2], in experiment [4], in [5] and in experiment [6] was above 100 µM throughout. Moreover, the TGI in experiment [7], in experiment [8] and in experiment [9] was above 100 µM each time.
For the compound `CC(=O)OC(C)(C)C[N+](=O)[O-]`, the TGI in experiment [1], in experiment [2], in experiment [3], in experiment [4], in [5] and in experiment [6] was above 100 µM each time. In addition, the TGI in [7], in experiment [8] and in [9] was above 100 µM each time.
For the compound `CCC(C)C1NC(=O)C(CC(C)C)NC(=O)C(C(C)C)NC(=O)C2CSSCC(NC1=O)C(=O)N2` (stereo unspecified) (cyclo(CCVLI); disulfide 1-2; configuration not given here), the TGI in [1] amounted to 0.399 µM; in experiment [2], 0.216 µM; in [3], 0.339 µM; in experiment [4], 1.01 µM; in [6] it was 0.34 µM; in experiment [7] it was 0.351 µM. Also, the TGI in experiment [8] was 0.344 µM; in experiment [9], 0.149 µM.
Turning to `COC(=O)/C=C(C)/C=C/c1c(C)c(C(C)=O)c(C)n1C`, the TGI in experiment [10], in experiment [1], in experiment [2], in experiment [3], in experiment [4] and in experiment [6] was above 100 µM each time. The TGI in experiment [7], in [8] and in experiment [9] was above 100 µM in each case.
As to `Cc1ccc(-c2nc3ccccc3c(=O)n2NC2OC(CO)C(O)C(O)C2O)cc1` (stereo unspecified), the TGI in experiment [10], in [1], in [2], in [3], in experiment [4] and in experiment [6] was above 100 µM each time. The TGI in experiment [7], in experiment [8] and in [9] was above 100 µM in each case.
Turning to `C=C1C(=O)O[C@H]2[C@H]1CC/C(CNC(=O)C(C)c1ccc(CC(C)C)cc1)=C\CC[C@@]1(C)O[C@@H]21` (stereo partly specified), the GI50 in experiment [10] is 2.22 µM; in experiment [1] it was 2.37 µM; in experiment [2], 1.83 µM; in experiment [4], 1.85 µM; in experiment [5] it was 1.31 µM; in [6], 3.45 µM. The GI50 was 1.63 µM in experiment [7], 2.15 µM in experiment [8] and 1.67 µM in [9]. Moreover, the TGI in [10] was found to be 8.38 µM; in [1] it was 6.72 µM; in experiment [2] it was 3.38 µM; in [4], 3.98 µM; in [5], 2.61 µM; in experiment [6], 14.7 µM. In addition, the TGI is 3.26 µM in experiment [7], 5.67 µM in experiment [8] and 3.1 µM in experiment [9].
